{"source": "patent US9944721B2", "about": "“Polysialic acid and use for treatment of neurodegenerative and neuroinflammatory diseases” (RHEINISCHE FRIEDRICH-WILHELMS UNIVERSITÄT BONN, priority 2013, dated 2018)", "key": {"human microglial cells": {"system": "human microglial cells", "test": "Phagocytosis associated oxidative burst: neural debris triggered superoxide release (DHE)", "format": "cell-based", "protocol": "To measure the relative production of superoxide by the microglial cells, human microglial cells were plated in 4-chamber culture dishes. After 24 hours cells were treated with 5 mg/ml neural debris for 15 minutes with or without 1 hour PSA-20 pre-incubation at concentrations of 0.15 μM, 0.5 μM or 1.5 μM. Then, cells were washed 2-times with Krebs-HEPES-buffer. To detect the release of superoxide the cells were afterwards incubated for 15 minutes with 30 μM superoxide-sensitive fluorescent dye dihydroethidium (DHE) solution diluted in Krebs-HEPES-buffer. Finally cells were washed 2-times with Krebs-HEPES-buffer and fixed for 15 minutes with 0.25% glutaraldehyde and 4% PFA. In total, six images were randomly collected per experimental group by confocal laser scanning microscopy (Fluoview 1000, Olympus). All cells of the collected images were analyzed by Image J software (NIH).\nTo confirm the effect, Trolox as scavenger of superoxide and superoxide dismutase-1 (SOD1) as modifier of superoxide were used in a control experiment as described above using 1.5 μM of PSA-20 but adding either 40 μM Trolox or 20 μg/ml (SOD1) into the medium. […] As can be taken from the FIG. 9C, the radical scavenger Trolox and the superoxide dismutase SOD1 neutralized the neural debris triggered superoxide release and as controls confirmed that DHE detected an extracellular production of superoxide."}, "[1]": {"system": "human microglial cells stimulated with fibrillary amyloid-β1-42", "test": "Amyloid-β1-42 induced superoxide release of human microglia (DHE)", "format": "cell-based", "settings": "Aβ 10 μM", "protocol": "The human microglial cell line was treated with human Alzheimer's disease associated fibrillary amyloid-beta peptide (Aβ) to mimic inflammatory signalling of Alzheimer's disease brain tissue. To obtain fibrillary components of Aβ, the synthetic amyloid-beta peptide (amyloid-beta 1-42, Bachem/Brucker, 10 μM) was preincubated at 37° C. for at least three days. The human microglial cells were treated with the different concentrations of 0.15 μM, 0.5 μM, or 1.5 μM of low molecular weight polysialic acid (PSA-20) for 60 minutes followed by incubation for 15 minutes with fibrillary Aβ. Then, 30 μM dihydroethidium (DHE) was added and incubated at 37° C. for 15 minutes for measurement of superoxide anion radical production. Cells were fixed with 4% paraformaldehyde plus 0.25% glutaraldehyde and analyzed by confocal microscopy. For the quantification of DHE staining intensity six pictures of each experiment were obtained and analyzed by ImageJ software (NIH). The background was subtracted and the mean values of the staining intensities were compared. Cells were fixed and the intensity of DHE was quantified by confocal microscopy.\nTo confirm the specificity of the DHE measurement, the determination of the effect of PSA-20 on superoxide production in human microglial cells was repeated. As a control the radical scavenger Trolox, a water-soluble vitamin E analogue, was added to the system. Furthermore, as additional control superoxide dismutase-1 (SOD1) was added into the medium. Superoxide should no longer be detectable by the DHE dye after successful transformation of superoxide by SOD1.\nHuman microglial cells were cultured alone and production of reactive oxygen species was analyzed after treatment with the Alzheimer's disease plaques associated fibrillary amyloid-β1-42. To measure the relative production of superoxide by the microglial cells, cells were plated in 4-chamber culture dishes. After 24 hours human microglial cells were treated with 1.5 μM of low molecular weight polysialic acid (PSA-20) for 60 minutes followed by incubation for 15 minutes with 10 μM fibrillary amyloid-β1-42. Control dishes were treated with either 1.5 μM PSA-20 and 40 μM Trolox or 1.5 μM PSA-20 and 20 μg/ml superoxide dismutase-1 (SOD1, Serva). Then, cells were washed 2-times with Krebs-HEPES-buffer and afterwards incubated for 15 minutes with 30 μM DHE solution (diluted in Krebs-HEPES-buffer). Finally cells were washed 2-times with Krebs-HEPES-buffer and fixed for 15 minutes with 0.25% glutaraldehyde and 4% PFA. In total, six images were randomly collected per experimental group by confocal laser scanning microscopy (Fluoview 1000, Olympus). All cells of the collected images were analyzed by Image J software (NIH)."}, "[2]": {"system": "humanized Siglec-11 transgenic mice", "test": "Septic encephalopathy model: TNF-alpha gene transcripts after repeated systemic LPS", "format": "in vivo", "settings": "4x LPS plus 4x PSA-20 1 μg per gram body weight i.p., 24 hours after last application", "protocol": "Humanized Siglec-11 transgenic mice (Wang Y, 2009, dissertation, University Bonn, uniform resource name: urn:nbn:de:hbz:5N-18095) expressing human Siglec-11 under the Iba1-promoter in microglia and wildtype littermate control mice were used in this experiment. For gene transcript analysis, RNA was isolated from brains with Trizol followed with the RNeasy Mini Kit (Qiagen). Reverse transcription of RNA was performed with SuperScript III reverse transcriptase (Invitrogen) and hexamer random primers (Roche Molecular Biochemicals). Quantitative RT-PCR with specific oligonucleotides was performed with SYBR Green PCR Master Mix (Applied Biosystems) using the ABI 5700 Sequence Detection System (Perkin Elmer) and amplification protocol for the ABI 5700 Sequence Detection System. […] Results were analyzed with the ABI 5700 Sequence Detection System v.1.3 after establishing the reaction efficiency for each primer pair. Quantification using the delta-CT method was carried out.\nMice were either treated intraperitoneally with 4× lipopolysaccharide (LPS from Salmonella abortus equi S-form (ENZO Life Science), 1 μg per gram body weight) or 4×LPS (1 μg per gram body weight) plus 4×PSA-20 (1 μg per gram body weight) or 4×PBS. […] Mice were analyzed 24 hours after the last application.\nGene transcripts for TNF-alpha were determined from the total brain tissue by qRT-PCR at 24 hours after the last application."}}, "data": [{"substance": "poly-(α(2→8)Neu5Ac)n [PSA-20]", "values": [{"measurement": "superoxide release triggered by neural debris", "setting": "human microglial cells; 0.5 μM and 1.5 μM", "result": "inhibited"}, {"measurement": "relative superoxide production, debris-induced", "setting": "human microglial cells; 1.5 μM, 1 hour pre-incubation, debris alone 1.5+/−0.08, FIG. 9C", "result": "0.9+/−0.05"}, {"measurement": "Aβ induced superoxide release", "setting": "[1]; 1.5 μM, 60 minutes pre-treatment, FIG. 4A", "result": "reduced"}, {"measurement": "amyloid-β1-42 induced stimulation of the superoxide production", "setting": "[1]; repeat, FIG. 4B, PSA-20 1.5 μM, Trolox 40 μM, SOD1 20 μg/ml", "result": "prevented"}, {"measurement": "gene transcripts for TNF-alpha in the spleen", "setting": "[2]", "result": "No change"}, {"measurement": "gene transcription levels of TNF-alpha in the brain tissue", "setting": "[2]; Siglec-11 transgenic mice", "result": "reduced gene transcription levels"}]}]}
